Test results: US20170234881A1, “METHODS OF DIAGNOSING AND TREATING CANCER” (INSERM ( INSTITUT NATIONAL DE LA SANTÉ ET DE LA RECHERCHE …, priority 2014, published 2017)

How the values were obtained:
[1] = test system: HSD1-transfected MCF7 cells; assay: Proliferation of 11βHSD1-transfected MCF7 cells (BrDU); format: cell-based, human; conditions: 5 μM OCDO for 24 h
Description: FIG. 5. Ectopic expression of 11βHSD1 in MCF7 inhibits cell proliferation and OCDO reverses this effect. MCF7 cells were transfected by electroporation with a plasmid coding either the enzymes 11βHSD1 (HSD1) or the control empty vector (mock) and analyzed as followed: (A) the expression of 11βHSD1 was confirmed by immunoblotting using specific antibody against 11βHSD1 and normalized with actin; (B) The production of CT was determined by incubating the mock or the HSD1-transfected cells with ^14C-OCDO for 72 h at 37° C. The radioactive metabolites of interest were analyzed as in the legend of FIG. 4B. (C) The proliferation of the mock- or the HSD1-transfected MCF7 cells treated or not with 5 μM OCDO for 24 h were analyzed as in FIG. 2A. The results in B and C are the mean (±s.e.m) of three to five experiments, **P<0.01, ***P<0.001 (Student's t-test), ns: non specific.
MCF7 or HEK293T cells (5×10^6 cells) were transfected with 5 μg of the indicated plasmid using the NEON Transfection System and according to the manufacturer's recommendations. […] Several clones were analyzed by immunoblot analysis and real time RT-qPCR for the knock down of the expression of the protein of interest. […]

shHSD2 MCF7 cells = assay: Clonogenic assay of shHSD2 MCF7 cells; format: cell-based, human; conditions: OCDO 1 μM
Description: FIG. 7. Knock-down of 11βHSD2 decreases cell proliferation, invasion and survival in MCF7 cells as well as tumor growth and OCDO reverses these effects. shC or shHSD2 MCF7 cells were analyzed as followed: (A) The proliferation of sh-C or shHSD2 cells treated or not with OCDO 5 μM 24 h was measured using quantification of DNA BrDU incorporation as described in FIG. 2A. (B) The proliferation of sh-C or shHSD2 cells treated or not with increasing concentration of cortisone for 24 h was measured as in (A). (C) The invasiveness of sh-C or shHSD2 cells treated or not with OCDO 5 μM for 72 h was assayed using matrigel-coated filters. (D) the formation of colony by sh-C or shHSD2 cells treated or not with OCDO 1 μM was quantified as described in FIG. 6F. […] Animals were monitored for tumor growth twice a week. […] (F) Mean (±s.e.m) of Ki67 positive cell number determined from IHC staining of shC or shHSD2 MCF7 tumor sections from (E), n=8, *P<0.05 (Student's t-test) using HistoQuant, Pannoramic Viewer (3DHistech).
Cells, MCF7-sh11bHSD2 (5×10^3), MCF7-shC (5×10^3) or TSA (3×10^3) were seeded in duplicate in […] diameter dish. […] At day 10, colonies were fixed with 3.7% PFA, stained with an aqueous crystal violet solution (0.05%) and the number of colonies was counted.

CC(C)CCC[C@@H](C)[C@H]1CC[C@H]2[C@@H]3CC(=O)[C@@]4(O)C[C@@H](O)CC[C@]4(C)[C@H]3CC[C@]12C [OCDO, 6-oxo-cholestan-3β,5α-diol]
effect on the decrease of cell proliferation induced by 11βHSD1 expression [1]: reversed this effect | effect on the inhibition of cell survival (colony formation) mediated by 11βHSD2 knock-down (shHSD2 MCF7 cells): reversed the inhibition
